Laboratory results taken from PubChem BioAssay AID248 (DTP/NCI, 2004).
“And” between values parts separate entries of the source, which are not always exact repeats. Equal values may be shown once. Toxic doses and inconclusive results are not listed. Rule as the data show it: active = T/C of 150% or more; inactive = T/C below 125%.

Tested on: L1210 leukemia ip in BDF1 mice, survival T/C
Assay: NCI In Vivo Anticancer Drug Screen. Data for tumor model L1210 Leukemia (intraperitoneal) in B6D2F1 (BDF1) mice
Settings: higher = longer survival
Procedure, shortened: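 Tumor was transplanted into mice, which were then dosed with test compound or vehicle alone. Survival was recorded for each group, and the treated figure was expressed relative to the control figure.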

Measured: T/C

COC1OC(COC(=O)c2ccccc2)C(OS(=O)(=O)c2ccc(C)cc2)C1OCc1ccccc1 (centres undefined)
inactive: endpoint: mean survival time, dose: 50.0 mg/kg/injection, schedule: Q01DX001 (ip), vehicle: carboxymethylcellulose (CMC) 98 % of control | endpoint: mean survival time, dose: 100.0 mg/kg/injection, schedule: Q01DX001 (ip), vehicle: carboxymethylcellulose (CMC) 93 % of control | endpoint: mean survival time, dose: 200.0 mg/kg/injection, schedule: Q01DX001 (ip), vehicle: carboxymethylcellulose (CMC) 95 % of control | endpoint: mean survival time, dose: 400.0 mg/kg/injection, schedule: Q01DX001 (ip), vehicle: carboxymethylcellulose (CMC) 95 % of control

CC(Br)C1(c2cccc([N+](=O)[O-])c2)OCCO1 (centres undefined)
inactive: endpoint: mean survival time, dose: 100.0 mg/kg/injection, schedule: Q04DX003 (ip), vehicle: saline 105 % of control | endpoint: mean survival time, dose: 200.0 mg/kg/injection, schedule: Q04DX003 (ip), vehicle: saline 100 % of control | endpoint: mean survival time, dose: 400.0 mg/kg/injection, schedule: Q04DX003 (ip), vehicle: saline 108 % of control

CCC(=O)c1cc([N+](=O)[O-])ccc1N
inactive: endpoint: mean survival time, dose: 50.0 mg/kg/injection, schedule: Q01DX009 (ip), vehicle: saline with Tween-80 100 % of control | endpoint: mean survival time, dose: 100.0 mg/kg/injection, schedule: Q01DX009 (ip), vehicle: saline with Tween-80 100 % of control | endpoint: mean survival time, dose: 200.0 mg/kg/injection, schedule: Q01DX009 (ip), vehicle: saline with Tween-80 100 % of control

CCCCCCCCCCCCSC1=NCCN1
inactive: endpoint: mean survival time, dose: 25.0 mg/kg/injection, schedule: Q04DX003 (ip), vehicle: Klucel (hydroxypropylcellulose) (HPC) 100 % of control | endpoint: mean survival time, dose: 45.0 mg/kg/injection, schedule: Q04DX003 (ip), vehicle: Klucel (hydroxypropylcellulose) (HPC) 95 % of control | endpoint: mean survival time, dose: 87.5 mg/kg/injection, schedule: Q04DX003 (ip), vehicle: Klucel (hydroxypropylcellulose) (HPC) 100 % of control | endpoint: mean survival time, dose: 88.0 mg/kg/injection, schedule: Q04DX003 (ip), vehicle: Klucel (hydroxypropylcellulose) (HPC) 103 % of control

O=C(COc1cc(Cl)c(Cl)cc1Cl)Nc1cccc(C(F)(F)F)c1
inactive: endpoint: mean survival time, dose: 100.0 mg/kg/injection, schedule: Q04DX002 (ip), vehicle: saline 100 % of control | endpoint: mean survival time, dose: 200.0 mg/kg/injection, schedule: Q04DX002 (ip), vehicle: saline 92 % of control | endpoint: mean survival time, dose: 400.0 mg/kg/injection, schedule: Q04DX002 (ip), vehicle: saline 111 % of control

O=C(/C=C/C=C\c1ccccc1)/C=C/C=C/c1ccccc1
inactive: endpoint: mean survival time, dose: 100.0 mg/kg/injection, schedule: Q01DX001 (ip), vehicle: Klucel (hydroxypropylcellulose) (HPC) 91 % of control | endpoint: mean survival time, dose: 100.0 mg/kg/injection, schedule: Q01DX009 (ip), vehicle: Klucel (hydroxypropylcellulose) (HPC) 92 % of control | endpoint: mean survival time, dose: 200.0 mg/kg/injection, schedule: Q01DX001 (ip), vehicle: Klucel (hydroxypropylcellulose) (HPC) 93 % of control | endpoint: mean survival time, dose: 200.0 mg/kg/injection, schedule: Q01DX009 (ip), vehicle: Klucel (hydroxypropylcellulose) (HPC) 92 % of control | endpoint: mean survival time, dose: 400.0 mg/kg/injection, schedule: Q01DX001 (ip), vehicle: Klucel (hydroxypropylcellulose) (HPC) 93 % of control | endpoint: mean survival time, dose: 400.0 mg/kg/injection, schedule: Q01DX009 (ip), vehicle: Klucel (hydroxypropylcellulose) (HPC) 89 % of control

CC/C(=C(/CC)c1ccc(O)cc1)c1ccc(O)cc1
inactive: endpoint: mean survival time, dose: 6.44 mg/kg/injection, schedule: Q01DX Z (sc), vehicle: steriod suspending solution 98 % of control | endpoint: mean survival time, dose: 12.88 mg/kg/injection, schedule: Q01DX Z (sc), vehicle: steriod suspending solution 109 % of control | endpoint: mean survival time, dose: 25.0 mg/kg/injection, schedule: Q01DX009 (ip), vehicle: carboxymethylcellulose (CMC) 87 % of control | endpoint: mean survival time, dose: 25.75 mg/kg/injection, schedule: Q01DX Z (sc), vehicle: steriod suspending solution 107 % of control | endpoint: mean survival time, dose: 50.0 mg/kg/injection, schedule: Q01DX001 (ip), vehicle: saline 90 % of control | endpoint: mean survival time, dose: 50.0 mg/kg/injection, schedule: Q01DX009 (ip), vehicle: carboxymethylcellulose (CMC) 94 % of control | endpoint: mean survival time, dose: 51.5 mg/kg/injection, schedule: Q01DX Z (sc), vehicle: steriod suspending solution 100 % of control | endpoint: mean survival time, dose: 100.0 mg/kg/injection, schedule: Q01DX001 (ip), vehicle: saline 94 % of control | endpoint: mean survival time, dose: 100.0 mg/kg/injection, schedule: Q01DX009 (ip), vehicle: carboxymethylcellulose (CMC) 95 % of control | endpoint: mean survival time, dose: 200.0 mg/kg/injection, schedule: Q01DX001 (ip), vehicle: saline 95 % of control | endpoint: mean survival time, dose: 200.0 mg/kg/injection, schedule: Q01DX009 (ip), vehicle: carboxymethylcellulose (CMC) 91 % of control | endpoint: mean survival time, dose: 400.0 mg/kg/injection, schedule: Q01DX001 (ip), vehicle: saline 87 % of control | endpoint: median survival time, dose: 8.0 mg/kg/injection, schedule: Q03HX016 (ip), vehicle: saline with Tween-80 97 % of control | endpoint: median survival time, dose: 8.0 mg/kg/injection, schedule: Q03HX024 (ip), vehicle: saline with Tween-80 98 % of control | endpoint: median survival time, dose: 12.5 mg/kg/injection, schedule: Q01DX009 (sc), vehicle: steriod suspending solution 100 % of control and 111 % of control | endpoint: median survival time, dose: 16.0 mg/kg/injection, schedule: Q01DX009 (ip), vehicle: saline with Tween-80 113 % of control | endpoint: median survival time, dose: 16.0 mg/kg/injection, schedule: Q03HX008 (ip), vehicle: saline with Tween-80 101 % of control | endpoint: median survival time, dose: 16.0 mg/kg/injection, schedule: Q03HX016 (ip), vehicle: saline with Tween-80 97 % of control | endpoint: median survival time, dose: 16.0 mg/kg/injection, schedule: Q03HX024 (ip), vehicle: saline with Tween-80 91 % of control | endpoint: median survival time, dose: 25.0 mg/kg/injection, schedule: Q01DX009 (sc), vehicle: steriod suspending solution 100 % of control and 106 % of control | endpoint: median survival time, dose: 32.0 mg/kg/injection, schedule: Q01DX009 (ip), vehicle: saline with Tween-80 110 % of control | endpoint: median survival time, dose: 32.0 mg/kg/injection, schedule: Q03HX008 (ip), vehicle: saline with Tween-80 97 % of control | endpoint: median survival time, dose: 32.0 mg/kg/injection, schedule: Q03HX016 (ip), vehicle: saline with Tween-80 97 % of control | endpoint: median survival time, dose: 32.0 mg/kg/injection, schedule: Q03HX024 (ip), vehicle: saline with Tween-80 98 % of control | endpoint: median survival time, dose: 50.0 mg/kg/injection, schedule: Q01DX009 (sc), vehicle: steriod suspending solution 100 % of control and 105 % of control | endpoint: median survival time, dose: 64.0 mg/kg/injection, schedule: Q01DX009 (ip), vehicle: saline with Tween-80 103 % of control | endpoint: median survival time, dose: 64.0 mg/kg/injection, schedule: Q03HX008 (ip), vehicle: saline with Tween-80 103 % of control | endpoint: median survival time, dose: 64.0 mg/kg/injection, schedule: Q03HX016 (ip), vehicle: saline with Tween-80 100 % of control | endpoint: median survival time, dose: 64.0 mg/kg/injection, schedule: Q03HX024 (ip), vehicle: saline with Tween-80 94 % of control | endpoint: median survival time, dose: 64.0 mg/kg/injection, schedule: Q04DX003 (ip), vehicle: saline with Tween-80 100 % of control | endpoint: median survival time, dose: 64.0 mg/kg/injection, schedule: Q08DX002 (ip), vehicle: saline with Tween-80 106 % of control | endpoint: median survival time, dose: 100.0 mg/kg/injection, schedule: Q01DX009 (sc), vehicle: steriod suspending solution 100 % of control and 105 % of control | endpoint: median survival time, dose: 128.0 mg/kg/injection, schedule: Q01DX001 (ip), vehicle: saline with Tween-80 107 % of control | endpoint: median survival time, dose: 128.0 mg/kg/injection, schedule: Q01DX009 (ip), vehicle: saline with Tween-80 102 % of control | endpoint: median survival time, dose: 128.0 mg/kg/injection, schedule: Q04DX003 (ip), vehicle: saline with Tween-80 101 % of control | endpoint: median survival time, dose: 128.0 mg/kg/injection, schedule: Q08DX002 (ip), vehicle: saline with Tween-80 104 % of control | endpoint: median survival time, dose: 256.0 mg/kg/injection, schedule: Q01DX001 (ip), vehicle: saline with Tween-80 109 % of control | endpoint: median survival time, dose: 256.0 mg/kg/injection, schedule: Q04DX003 (ip), vehicle: saline with Tween-80 107 % of control | endpoint: median survival time, dose: 256.0 mg/kg/injection, schedule: Q08DX002 (ip), vehicle: saline with Tween-80 98 % of control | endpoint: median survival time, dose: 512.0 mg/kg/injection, schedule: Q01DX001 (ip), vehicle: saline with Tween-80 108 % of control | endpoint: median survival time, dose: 512.0 mg/kg/injection, schedule: Q08DX002 (ip), vehicle: saline with Tween-80 92 % of control | endpoint: median survival time, dose: 1024.0 mg/kg/injection, schedule: Q08DX002 (ip), vehicle: saline with Tween-80 102 % of control | endpoint: median survival time, dose: 2048.0 mg/kg/injection, schedule: Q08DX002 (ip), vehicle: saline with Tween-80 102 % of control

CCCCC(=O)c1ccc(Cl)cc1
inactive: endpoint: mean survival time, dose: 100.0 mg/kg/injection, schedule: Q04DX003 (ip), vehicle: Klucel (hydroxypropylcellulose) (HPC) 103 % of control | endpoint: mean survival time, dose: 200.0 mg/kg/injection, schedule: Q04DX003 (ip), vehicle: Klucel (hydroxypropylcellulose) (HPC) 111 % of control | endpoint: mean survival time, dose: 400.0 mg/kg/injection, schedule: Q04DX003 (ip), vehicle: Klucel (hydroxypropylcellulose) (HPC) 104 % of control
